Test results reported in publication PMC11770808, “Interplay between conformational dynamics and substrate binding regulates enzymatic activity: a single-molecule FRET study” (Chemical Science, 2025).
Where two headings read alike, the source gives them in different places.

Target: T1, adenylate kinase (AK), wild-type (WT) (Escherichia coli, UniProt P69441)
T1 construct: gene adk; purified recombinant, details only in ESI
Assay: microscale thermophoresis
Format: binding

T1 sequence (P69441 whole entry): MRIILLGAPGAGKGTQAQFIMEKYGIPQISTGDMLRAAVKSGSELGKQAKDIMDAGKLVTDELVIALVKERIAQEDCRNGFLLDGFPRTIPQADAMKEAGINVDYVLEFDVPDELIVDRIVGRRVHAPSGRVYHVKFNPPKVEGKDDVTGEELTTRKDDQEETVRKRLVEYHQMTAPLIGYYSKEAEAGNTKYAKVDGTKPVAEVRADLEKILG

Row | SMILES | Kd (read-out: Kd (AMP)) [µM] | Kd (read-out: WT) [µM]
1 | Nc1ncnc2c1ncn2[C@@H]1O[C@H](COP(=O)(O)O)[C@@H](O)[C@H]1O [AMP] | 332 ± 40 | –
2 | Nc1ncnc2c1ncn2[C@@H]1O[C@H](COP(=O)(O)OP(=O)(O)OP(=O)(O)O)[C@@H](O)[C@H]1O [ATP] | – | 159 ± 17
